The conditions of series [1]: in vivo; cited from earlier work.
Series [2] in a line: In vivo pharmacokinetic studies, oral and subcutaneous. To be noted: for AUC(0-t): plasma. Set-up: species or system male Wistar rats. Here is the method: In vivo pharmacokinetic studies were performed using male Wistar rats weighing 250-300 g. The protocol was duly approved by the Institutional Animal Ethics Committee (IAEC) of Panjab University, Chandigarh, India. The animals were divided into four groups (n=6). Group 1 was administered 2.5 Lacs International units (IU) subcutaneous retinoic acid and vitamin D3 SLNs simultaneously, Group 2 was also simultaneously administered 2.5 Lacs IU free retinoic acid and vitamin D3. Group 3 was administered simultaneously 1 Lac IU oral Retinoic acid and vitamin D3 SLNs, Group 4 was administered simultaneously 1 Lac IU oral free Retinoic acid and vitamin D3. The blood samples (0.5 mL) were withdrawn from sinus under clavicle and, collected into heparinized micro-centrifuge tubes (containing […] of 1000 IU heparin/mL of blood) at 0.5 h, 1 h, 2 h, 4 h, 8 h, 12 h, 24 h, 48 h, 72 h, 96 h, 120 h, 144 h, 168 h. After each sampling, 1 mL of dextrose-normal saline was administered to prevent changes in the central compartment volume and electrolytes. Plasma was separated by centrifuging the blood samples at 4000 rpm for 10 min at 4° C. After centrifugation, the plasma obtained was stored at −20° C. until analysis.
500 microliter blank plasma was taken and into it added 20 microliter stock standard dilutions of different concentrations (0.01 mcg to 1 mcg) (vortex) and added 400 microliter of chilled ethanol (vortex) and to it was added 2 ml (n-Hexane:ethylacetate (90:10) (Vortex) and the same was kept at −20° C. for 5 min followed by Cold centrifuge at 5000 rpm for 5 min finally separating the upper layer carefully and drying the solution under rotavapour/nitrogen gas, after drying add 250 microliter of acetonitrile and inject the sample to HPLC/UPLC. The method was applied for extraction procedure for Pharmacokinetic samples after giving SLNs and free drugs of Retinoic acid and vitamin D3 formulation to rats as oral/subcutaneous routes and sampling time points (0.5 h, 1 h, 2 h, 4 h, 8 h, 12 h, 24 h, 48 h, 72 h, 96 h, 120 h, 144 h, 168 h).

Consider three compounds from patent US9907758B2, “Process for preparing solid lipid sustained release nanoparticles for delivery of vitamins” (Department of Biotechnology (DBT), priority 2012, dated 2018).

What is called Cmax is the maximum level reached in the sampled fluid or tissue. The term AUC(0-inf) denotes the area under the concentration-time curve extrapolated to infinity. Read a high AUC(0-inf) as more exposure. Usually half-life stands for the time needed for the level to fall by half in the phase considered. Read a low half-life as fast loss. One may read the Tmax as the time from dosing to the highest level.

Read-outs that look alike come from different tables or passages of the source.

For `C=C1CC[C@H](O)C/C1=C/C=C1\CCC[C@]2(C)[C@@H]([C@H](C)CCCC(C)C)CC[C@@H]12` [vitamin D3, cholecalciferol], in series [1], the Cmax in plasma result is reported as “not more than 75 ng/ml”.

Regarding `CC1=C(/C=C/C(C)=C/C=C/C(C)=C/C(=O)O)C(C)(C)CCC1` [ATRA-S, all-trans retinoic acid], the Cmax in series [2] (male, Wistar, 1 Lac IU, plasma ATRA, oral administration, rat, read-out: Cmax) came to 151 ng/mL; in series [2] (male, Wistar, sc, 2.5 Lacs IU, plasma ATRA, single dose subcutaneous, rat, read-out: Cmax), 1390 ng/mL; in series [2] (male, Wistar, sc, plasma ATRA, single dose subcutaneous injection, 2.5 Lac I.U, rat, read-out: Cmax) it was 1400 ng/mL; in series [2] (male, Wistar, plasma ATRA, single dose oral, 1 Lac I.U, rat, read-out: Cmax), 151 ng/mL. The AUC(0-t) in series [2] (male, Wistar, rat, po, 1 Lac I.U, plasma ATRA, single dose oral, 1 Lac I.U, rat, read-out: AUC (0-T)) is 357 ng·h/mL; in series [2] (male, Wistar, rat, po, 1 Lac I.U, plasma ATRA, single dose oral, 1 Lac I.U, rat, read-out: AUC (T-∞)) it was 714 ng·h/mL; in series [2] (male, Wistar, rat, po, 1 Lac IU, plasma ATRA, oral administration, rat, read-out: AUC0-t), 356 ng·h/mL; in series [2] (male, Wistar, rat, po, 1 Lac IU, plasma ATRA, oral administration, rat, read-out: AUCt-∞), 713 ng·h/mL; in series [2] (male, Wistar, rat, sc, 2.5 Lac I.U, plasma ATRA, single dose subcutaneous, 2.5 Lac I.U, rat, read-out: AUC (0-T)), 2820 ng·h/mL; in series [2] (male, Wistar, rat, sc, 2.5 Lac I.U, plasma ATRA, single dose subcutaneous, 2.5 Lac I.U, rat, read-out: AUC (T-∞)) it was 2950 ng·h/mL. For the same compound, the AUC(0-t) in series [2] (male, Wistar, rat, sc, 2.5 Lacs IU, plasma ATRA, single dose subcutaneous, rat, read-out: AUC0-t) is 2820 ng·h/mL. In addition, in series [2] (male, Wistar, sc, 2.5 Lacs IU, plasma ATRA, single dose subcutaneous, rat), the AUC(0-inf) amounted to 2950 ng·h/mL. The half-life in series [2] (male, Wistar, sc, plasma ATRA, single dose subcutaneous, 2.5 Lac I.U, rat) is 57 min; in series [2] (male, Wistar, plasma ATRA, single dose oral, 1 Lac I.U, rat), 290 min. The Tmax in series [2] (male, Wistar, sc, plasma ATRA, single dose subcutaneous, 2.5 Lac I.U, rat, read-out: Tmax) is 30 min; in series [2] (male, Wistar, plasma ATRA, single dose oral, 1 Lac I.U, rat, read-out: Tmax), 54 min. The Kel was determined as 0.17 in series [2] (plasma ATRA, single dose oral, 1 Lac I.U, rat) and 0.74 in series [2] (plasma ATRA, single dose subcutaneous, 2.5 Lac I.U, rat). Besides, in series [2] (rat plasma), the “plasma ATRA dropped to an undetectable level at, after dosing” value worked out at 4 h.

As to `C=C1CC[C@H](O)C/C1=C/C=C1\CCC[C@]2(C)[C@@H]([C@H](C)CCCC(C)C)CC[C@@H]12` [Vitamin D3-S, cholecalciferol], the Cmax in series [2] (male, Wistar, rat, in vivo, po) was < 25 ng/mL; in series [2] (male, Wistar, rat, in vivo, sc), < 25 ng/mL. For the same compound, the Tmax in series [2] (male, Wistar, rat, in vivo, po) was 0 min; in series [2] (male, Wistar, rat, in vivo, sc), 0 min. The Kel in series [2] (plasma vitamin D3, single dose oral, 1 Lac IU, rat) is 0.0; in series [2] (plasma vitamin D3, single dose subcutaneous, 2.5 Lac I.U, rat), 0.0. Also, the “CL” value in series [2] (rat, in vivo, po) is 0.0 mL/h/g; in series [2] (rat, in vivo, sc), 0.0 mL/h/g. Besides, the T1/2 worked out at 0 h in series [2] (rat, in vivo, po) and 0 h in series [2] (rat, in vivo, sc).
